The values below come from patent US20220112225A1, “ANANDAMIDE COMPOUNDS” (priority 2019, published 2022).

One series addresses T1, hMfsd2a (Homo sapiens, UniProt Q8NA29).
T1 construct: expressed in transfected cells; host or cells: HEK293
T1 sequence (Q8NA29 1-530 isoform Q8NA29-2): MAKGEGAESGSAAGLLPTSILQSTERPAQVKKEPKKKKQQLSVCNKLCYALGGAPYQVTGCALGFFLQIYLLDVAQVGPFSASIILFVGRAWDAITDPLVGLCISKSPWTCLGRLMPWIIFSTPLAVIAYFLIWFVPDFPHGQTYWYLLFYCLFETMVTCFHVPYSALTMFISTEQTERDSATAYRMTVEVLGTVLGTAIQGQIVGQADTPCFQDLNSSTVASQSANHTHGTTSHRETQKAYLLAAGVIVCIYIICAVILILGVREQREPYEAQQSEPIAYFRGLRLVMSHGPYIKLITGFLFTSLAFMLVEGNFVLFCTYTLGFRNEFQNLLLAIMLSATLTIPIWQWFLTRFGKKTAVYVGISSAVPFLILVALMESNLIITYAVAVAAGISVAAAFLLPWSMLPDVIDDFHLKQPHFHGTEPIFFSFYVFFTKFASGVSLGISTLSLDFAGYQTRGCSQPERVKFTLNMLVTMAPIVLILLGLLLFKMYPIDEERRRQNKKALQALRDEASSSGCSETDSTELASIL
Kind of series: In vitro Mfsd2a transport, UPLC-MS-MS analysis. Particulars: transfected HEK293 cells, 50 μM test compound, 1 hour. Format: cell-based. The procedure: The assay was conducted in a low throughput 6-well format with HEK293 cells prepared and then transfected in duplicate wells with plasmids containing either the wildtype (WT) version of hMfsd2a, the D97A mutant version, or an empty vector as control. Uptake into the ceils was assessed by both thin-layer chromatography (TLC) and ultrahigh performance liquid chromatography hyphenated mass spectrometry.
HEK293 cells were seeded at 6.25×10^5 per 6-well in 2 mL of DMEM with 10% FBS and 1% penicillin-streptomycin (P/S) media (Sigma) and incubated overnight at 37° C. in 5% CO2. Cells were checked for confluency the next morning. On a per well basis the following lipid mix was generated, 6 μL of Lipofectamine 2000 was added dropwise to 200 μL of OptiMEM, this was left to stand for 5 minutes at room temperature (RT). 1 μg of hMfsd2a WT, D97A or empty plasmid was prepared in 200 μL of OptiMEM as appropriate for each well; the Lipofectamine 2000 in OptiMEM solution was then added dropwise to a total volume of 400 μL (this can be scaled to support the number of wells/plates to be assayed). This transfection preparation was then incubated at RT for 20 minutes. DMEM with 10% FBS and no P/S media was warmed to 37° C., the HEK293 plate media was changed and the cells washed carefully with 1 mL of the warmed DMEM with 10% FBS no P/S media, 1.6 mL of the warmed DMEM with 10% FBS no P/S media was then added to each well. 400 μL of the transfection preparation was then added dropwise to each well as appropriate and the plate was gently swirled in a circular motion. The plate was then incubated overnight at 37° C. in 5% CO2.
Compound Incubation and Preparation of Analysis Samples Compound stock solutions were prepared in a 12% BSA in PBS solution such that a 40 μL spike into 2 ml, of plain DMEM would yield a concentration of 50 μM of test compound (the compound treated media). Remaining compound stock solution in 12% BSA in PBS was frozen at −20° C. to allow for media stability testing. The HEK293 6-well plate was removed from the incubator and the wells gently rinsed with 1 mL of plain DMEM that had been prewarmed to 37° C. 2 mL of the compound treated media was then added to each well. A 100 μL sample of the compound treated media was sampled to represent a T=0 h sample; 5 μL of this sample (the remainder was reserved and frozen in case of re-analysis being required) was diluted with 45 μL of DMEM and crashed with 50 μL MeCN in a 96-well plate which was sealed and kept on ice. The HEK293 6-well plate was then incubated at 37° C. in 5% CO2 for 1 hour, the plate was then removed from the incubator and a 100 μL sample of media taken from each well to represent a T=1 h sample; 5 μL of this sample (the remainder was reserved and frozen in case of re-analysis being required) was diluted with 45 μL of DMEM and crashed with 50 μL MeCN into the 96-well plate which was re-sealed and stored at −20° C. The remaining media was then removed from the HEK293 6-well plate, the wells were gently rinsed twice with 1 mL of 0.5% BSA in DMEM, the media was then removed and the 6-well plate allowed to dry completely at RT. 1 ml of 3:2 Hexane:Isopropanol (HIP) was added to each well in a fume cupboard and the plate allowed to stand for 30 minutes at RT without shaking. The HIP solution was then transferred to 2 mL Eppendorf tubes, and the process was repeated with a second 1 mL aliquot of HIP and the two aliquots combined. The HIP samples were then dried down under a nitrogen stream.
HIP samples prepared as described above were reconstituted in 100 μL of MeCN, vortex mixed and inverted multiple times to ensure all surfaces of the Eppendorf tube were rinsed with the MeCN and finally pulse centrifuged. […]

Series [1] is described as follows: In vitro brain homogenate stability, rat. The class given is in vitro ADME. The procedure: Fresh rodents brains were snap frozen immediately after collection and the assay performed on the same day. Brains were pre-incubated at 37° C. before being spiked with test compound at 1 μM. Samples were collected across 6 time points (0, 10, 20, 30, 45 and 60 minutes) and crashed in cold acetonitrile containing an internal standard (Leucine Enkephalin) and kept on ice until all samples had been collected. The samples were then shaken and centrifuged. 100 μL of supernatant was transferred to a plate containing 50 μL of MilliQ water and mixed. These plates were analyzed by LC-MS/MS over the 6 time points, where the percentage of test compound remaining was calculated using the peak area of the initial timepoint (T=0 minutes) as 100%. The natural log of the percentage remaining was then calculated. The natural log of the percentage remaining versus time (minutes) was plotted on a graph and the gradient of this graph was used to calculate the elimination rate constant (K), The half-life (t1/2) of test compound was calculated using the natural log of 2 divided by the elimination rate constant. The percentage of Compound 2 formed is reported below in Tables 4-6. FIGS. 9A-9F show results of the brain homogenate stability conducted with representative compounds of the Examples.

Regarding “2-(5Z,8Z,11Z,14Z)-icosa-5,8,11,14-tetraenamidoethyl (trimethylammonio) ethylphosphate [Compound 3]”, the “Transport via Mfsd2a: concentration in HIP samples from WT cells compared with D97A mutant Mfsd2a and/or empty vector cells” value on hMfsd2a was “transported via Mfsd2a”. Further, the “Rat t1/2” value in series [1] (37° C., test compound at 1 μM) came out at 56 min. Besides, in series [1] (one hour incubation, increasing formation of Compound 2), the “Clearance in brain homogenate stability study (in words)” value was “demonstrated a level of clearance”.
